# Experimental data as given in US12384786B2 (MINGHUI PHARMACEUTICAL (SHANGHAI) LIMITED, priority 2019, dated 2025).
# pIC50: −log10 of the molar value. “Also recorded” adds a separate entry of the source.
# Legend:
# Full-length human BTK [1] = test: BTK inhibitory activity, Reaction Biology Corporation kinase assay; conditions: read-out: IC50 of standard; standard in BTK/BTK (C481S) assay, ATP 10 μM
# [2] = system: TMD8 cells (Human diffuse large B lymphoma cells); test: CellTiter-Glo TMD8 inhibitory activity; assay type: cell-based; conditions: cultured in vitro
# Excerpt: CellTiter-Glo kit was used to test the TMD8 inhibitory activity of compounds of examples on Human diffuse large B lymphoma cells cultured in vitro. IC50 values were shown below.
# Full-length human BTK [3] = target: Full-length human BTK (Homo sapiens (Human), UniProt Q06187); test: BTK inhibitory activity, Reaction Biology Corporation kinase assay; conditions: for inhibition at 0.005 µM: read-out: BTK inhibitory rate(%); for IC50: read-out: IC50(nM) BTK, (b) ATP concentration 100 μM
# Full-length human BTK (Homo sapiens (Human), UniProt Q06187), sequence (Q06187 whole entry): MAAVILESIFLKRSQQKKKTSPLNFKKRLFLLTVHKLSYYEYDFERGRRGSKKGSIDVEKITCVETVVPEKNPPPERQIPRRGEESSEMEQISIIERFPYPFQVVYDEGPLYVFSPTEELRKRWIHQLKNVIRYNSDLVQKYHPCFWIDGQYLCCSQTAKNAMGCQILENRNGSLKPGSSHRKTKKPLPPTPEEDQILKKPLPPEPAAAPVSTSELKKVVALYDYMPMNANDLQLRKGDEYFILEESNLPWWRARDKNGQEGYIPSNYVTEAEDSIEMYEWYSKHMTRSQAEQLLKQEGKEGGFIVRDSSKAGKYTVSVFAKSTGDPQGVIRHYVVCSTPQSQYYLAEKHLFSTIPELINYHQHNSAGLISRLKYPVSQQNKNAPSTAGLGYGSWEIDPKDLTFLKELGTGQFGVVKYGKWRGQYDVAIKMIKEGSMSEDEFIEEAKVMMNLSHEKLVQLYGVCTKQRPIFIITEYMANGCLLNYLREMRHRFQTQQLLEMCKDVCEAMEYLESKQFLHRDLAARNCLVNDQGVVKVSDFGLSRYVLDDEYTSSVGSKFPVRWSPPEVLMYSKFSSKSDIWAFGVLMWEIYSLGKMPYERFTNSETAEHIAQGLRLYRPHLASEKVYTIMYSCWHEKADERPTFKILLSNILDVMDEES
# [4] = target: Full-length human BTK (C481S) (Homo sapiens (Human), UniProt Q06187, C481S); test: BTK (C481S) inhibitory activity, Reaction Biology Corporation kinase assay; conditions: for inhibition at 0.005 µM: read-out: BTK(C481S) inhibitory rate(%); for IC50: read-out: IC50(nM) BTK(C481S), (b) ATP concentration 100 μM
# Full-length human BTK (C481S), sequence (Q06187 whole entry C481S): as the sequence (Q06187 whole entry) above, with C481S counted along it
# [5] = system: subcutaneous xenograft TMD8 tumor; test: Subcutaneous transplantation tumor model of TMD8 cells in NOD/SCID mice; assay type: in vivo; conditions: for inhibitory effect on growth of subcutaneous transplanted TMD8 tumor / anti-tumor effect: orally 30 mg/kg once a day or 10→5 mg/kg twice a day; for tumor growth inhibition rate (TGI): after 22 days of administration
# Method: In the subcutaneous transplantation tumor model of human diffuse large B lymphoma TMD8 cells in NOD/SCID mice, the inhibitory effect of example 1 on tumor growth was tested. Tumor growth and animal body weight were presented in FIG. 1 and FIG. 2 as followed. […] Therefore, the dose was adjusted to 5 mg/kg and continued to administrate for 14 days.
SMILES,IC50 [2],inhibition at 0.005 µM (Full-length human BTK [3]),inhibition at 0.005 µM [4],IC50 (Full-length human BTK [3]),IC50 [4],further results
"CN[C@@H]1C[C@H]2O[C@@](C)([C@@H]1OC)n1c3ccccc3c3c4c(c5c6ccccc6n2c5c31)C(=O)NC4 [Starsporin, reference compound]",–,–,–,–,–,pIC50 (Full-length human BTK [1]): 8.40
"Nc1ncnc2c1c(-c1ccc(Oc3ccccc3)cc1)nn2[C@H]1CC[C@@H](O)CC1 [Example 8A, (1s, 4S)-4-(4-amino-3-(4-phenoxyphenyl)-1H-pyrazolo[3,4-d]pyrimidin-1-yl) cyclohexane-1-ol]",90 nM,82%,66%,–,–,–
Nc1ncnc2c1c(-c1ccc(Oc3ccccc3)cc1)nn2C1CCC(O)C1 (stereo not drawn) [Example 5],29 nM,62%,53%,–,–,–
"C[C@]1(O)CC[C@@H](n2nc(-c3ccc(Oc4ccccc4)cc3)c3c(N)ncnc32)CC1 [Example 9A, (1s,4s)-4-(4-amino-3-(4-phenoxyphenyl)-1H-pyrazolo[3,4-d]pyrimidin-1-yl]-1-methylcyclohexane-1-ol]",72 nM,57%,77%,–,–,–
"Nc1ncnc2c1c(-c1ccc(Oc3ccccc3)cc1)nn2[C@@H]1CCC[C@@H](O)C1 [Example 1, (1R,3R)-3-(4-amino-3-(4-phenoxyphenyl)-1h-pyrazole[3,4-d]pyrimidin-1-yl)cyclohex-1-ol]",20 nM,60%,–,8.1 nM,3.4 nM,"animal body weight ([5]; 10 mg/kg orally twice a day for 8 successive days): decreased slightly; effect on animal body weight ([5]; 30 mg/kg orally once a day): no significant effect; influence on the body weight of animals ([5]; during administration, treatment groups overall): without showing obvious influence; inhibitory effect on growth of subcutaneous transplanted TMD8 tumor / anti-tumor effect [5]: obvious inhibitory effect; inhibitory effect on growth of subcutaneous transplanted TMD8 tumor / anti-tumor effect ([5]; listed as example 1): significant anti-tumor effect; also recorded: significantly inhibited the growth of tumor; tumor growth inhibition rate (TGI) ([5]; orally once a day at 30 mg/kg): 49.6%; tumor growth inhibition rate (TGI) ([5]; orally twice a day at 10→5 mg/kg): 52.7%"
"COc1cccc(Oc2ccc(-c3nn([C@H]4CC[C@@H](O)CC4)c4ncnc(N)c34)cc2)c1F [Example 20, (1s,4s)-4-(4-amino-3-(4-(2-fluoro-3-methoxyphenoxy)phenyl)-1H-pyrazolo[3,4-d]pyrimidin-1-yl)cyclohex-1-ol]",8.6 nM,–,–,5 nM,0.9 nM,–
